The record followed here is PMC8618034, “In Silico Structure-Guided Optimization and Molecular Simulation Studies of 3-Phenoxy-4-(3-trifluoromethylphenyl)pyridazines as Potent Phytoene Desaturase Inhibitors” (Molecules, 2021).

Read-outs that look alike come from different tables or passages of the source.

For this experiment, the target named is T1, Synechococcus PDS (phytoene desaturase) (Synechococcus elongatus, UniProt P26294).
T1 construct: recombinant, pET15b-Synechococcus PDS
The experiment in a line: SPR (Biacore 8K, protein immobilized on CM5 chip). Format: binding. In general terms: In SPR one partner is held on a chip, and binding of the other changes the refractive index at the surface.

T1 sequence (P26294 whole entry): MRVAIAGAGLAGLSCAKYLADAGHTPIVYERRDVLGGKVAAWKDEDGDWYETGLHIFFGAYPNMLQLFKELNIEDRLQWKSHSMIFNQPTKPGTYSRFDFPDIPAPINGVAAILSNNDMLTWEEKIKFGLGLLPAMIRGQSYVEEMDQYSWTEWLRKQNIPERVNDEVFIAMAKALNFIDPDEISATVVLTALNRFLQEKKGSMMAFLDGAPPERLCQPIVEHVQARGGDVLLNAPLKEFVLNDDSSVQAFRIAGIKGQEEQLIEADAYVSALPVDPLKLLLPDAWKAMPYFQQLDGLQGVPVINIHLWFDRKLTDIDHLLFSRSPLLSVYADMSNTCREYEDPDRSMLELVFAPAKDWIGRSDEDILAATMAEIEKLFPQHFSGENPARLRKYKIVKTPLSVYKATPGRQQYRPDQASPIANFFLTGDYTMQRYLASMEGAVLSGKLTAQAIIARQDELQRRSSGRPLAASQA

`Cc1cc(-c2cccc(C(F)(F)F)c2)c(Oc2ccc(C(F)(F)F)cc2)nn1` [2a, 6-methyl-3-(4-(trifluoromethyl)phenoxy)-4-(3(trifluoromethyl)phenyl)pyridazine]: the Kd (read-out: Kd) was found to be 7.08 µM.
Take `CCc1cc(-c2cccc(C(F)(F)F)c2)c(Oc2cc(F)c(F)c(F)c2)nn1` [3h, 6-ethyl-4-(3-(trifluoromethyl)phenyl)-3-(3,4,5-trifluorophenoxy)pyridazine]: the Kd (read-out: Kd) is 63.2 µM.
Turning to `Cc1cc(-c2cccc(C(F)(F)F)c2)c(Oc2ccc(C#N)cc2)nn1` [compound 1], the Kd (read-out: Kd) was found to be 43.5 µM.
With `O=C(Nc1ccc(F)cc1F)c1cccnc1Oc1cccc(C(F)(F)F)c1` [diflufenican], the Kd came out at 70.8 µM.

For orientation: Kd means the free concentration of one partner at which half of the binding sites on the other are occupied at equilibrium, for simple one-to-one binding.
